Common to all, as to format: in vivo
Set-up in all cases: key: 1=total damage; 9=no action; Ratings of from 1 to 4 (especially from 1 to 3) indicate good to very good herbicidal action

For assay [1], the system named is Stellaria. Nature of the assay: Post-emergence herbicidal action (Example B2). Particulars: 2000 g a.i./ha, sprayed at 4- to 6-leaf stage, evaluated after approximately 18 days, scale of nine ratings. On the procedure: (§1) Monocotyledonous and dicotyledonous test plants are grown in a greenhouse in plastics pots containing standard soil and at the 4- to 6-leaf stage are sprayed with an aqueous suspension or emulsion of the test substances of formula I, prepared from a 25% emulsifiable concentrate (Example F1, c) in WO 97/34485, pages 9 and 10), at a rate of application corresponding to 2000 g of active ingredient/ha (500 liters water/ha). The test plants are then grown on in the greenhouse under optimum conditions. After approximately 18 days' test duration, the test is evaluated in accordance with a scale of nine ratings (1=total damage, 9=no action). Ratings of from 1 to 4 (especially from 1 to 3) indicate good to very good herbicidal action.
(§2) Test plants: Avena, Setaria, Sinapis, Stellaria

For assay [2], the system named is Avena. The assay is described as follows: Post-emergence herbicidal action (Example B2). The note with it: 2000 g a.i./ha, sprayed at 4- to 6-leaf stage, evaluated after approximately 18 days, scale of nine ratings. The protocol:
as §1, §2

In assay [3] the test system is Setaria. The assay is described as follows: Post-emergence herbicidal action (Example B2). Particulars: 2000 g a.i./ha, sprayed at 4- to 6-leaf stage, evaluated after approximately 18 days, scale of nine ratings. On the procedure:
as §1, §2

Assay [4] relates to Sinapis. The assay is described as follows: Post-emergence herbicidal action (Example B2). Particulars: 2000 g a.i./ha, sprayed at 4- to 6-leaf stage, evaluated after approximately 18 days, scale of nine ratings. The protocol: as §1, §2
The test system of assay [5] is Stellaria. Nature of the assay: Pre-emergence herbicidal action (Example B1). Particulars: 2000 g a.i./ha, sprayed immediately after sowing, evaluated after 3 weeks, scale of nine ratings. On the procedure: (§3) Monocotyledonous and dicotyledonous test plants are sown in standard soil in plastics pots. Immediately after sowing, the test compounds, each in the form of an aqueous suspension or emulsion prepared from a 25% emulsifiable concentrate (Example F1, c) in WO 97/34485, pages 9 and 10), are applied by spraying at a rate of application of 2000 g of active ingredient/ha (500 liters water/ha). The test plants are then grown in a greenhouse under optimum conditions. After 3 weeks' test duration, the test is evaluated in accordance with a scale of nine ratings (1=total damage, 9=no action). Ratings of from 1 to 4 (especially from 1 to 3) indicate good to very good herbicidal action.
as §2

In assay [6] the test system is Avena. Nature of the assay: Pre-emergence herbicidal action (Example B1). The note with it: 2000 g a.i./ha, sprayed immediately after sowing, evaluated after 3 weeks, scale of nine ratings. On the procedure:
as §3, §2

Assay [7] concerns Setaria. Nature of the assay: Pre-emergence herbicidal action (Example B1). The note with it: 2000 g a.i./ha, sprayed immediately after sowing, evaluated after 3 weeks, scale of nine ratings. On the procedure: as §3, §2
Assay [8] has as its system Sinapis. Nature of the assay: Pre-emergence herbicidal action (Example B1). The note with it: 2000 g a.i./ha, sprayed immediately after sowing, evaluated after 3 weeks, scale of nine ratings. The protocol: as §3, §2

The source of these data is patent US20020055639A1, “Pyrazole derivatives as herbicides” (priority 1997, published 2002).

Each structure is given as a SMILES string.

Take `CCSCCn1c(-c2nn(C)c(OC(F)F)c2Cl)c(F)cc(Cl)c1=O` [Example 1.156]: in the assay on Stellaria [1], the “Post-emergence action: Stellaria (rating)” value is 1. For the same molecule, in the assay on Avena [2], the “Post-emergence action: Avena (rating)” value was determined as 1. In addition, the “Post-emergence action: Setaria (rating)” value in the assay with Setaria [3] is 1. In the assay on Sinapis [4], the “Post-emergence action: Sinapis (rating)” value is 1. Also, the “Pre-emergence action: Stellaria (rating)” value in the assay on Stellaria [5] came to 1. The “Pre-emergence action: Avena (rating)” value in the assay with Avena [6] is reported as 1. For the same molecule, the “Pre-emergence action: Setaria (rating)” value with Setaria [7] was determined as 1. In the assay with Sinapis [8], the “Pre-emergence action: Sinapis (rating)” value was 1.
`C#CCn1c(-c2nn(C)c(S(C)(=O)=O)c2C)c(F)cc(Cl)c1=O` [Example 28.100]: in the assay with Stellaria [1], the “Post-emergence action: Stellaria (rating)” value stood at 1. In addition, in the assay on Avena [2], the “Post-emergence action: Avena (rating)” value was determined as 1. Further, the “Post-emergence action: Setaria (rating)” value in the assay with Setaria [3] is 1. In addition, in the assay on Sinapis [4], the “Post-emergence action: Sinapis (rating)” value worked out at 1. Further, the “Pre-emergence action: Stellaria (rating)” value with Stellaria [5] is on record as 1. The “Pre-emergence action: Avena (rating)” value with Avena [6] worked out at 1. Further, in the assay with Setaria [7], the “Pre-emergence action: Setaria (rating)” value was determined as 1. Also, the “Pre-emergence action: Sinapis (rating)” value with Sinapis [8] worked out at 1.
Consider `CSCn1c(-c2nn(C)c(OC(F)F)c2Cl)c(F)cc(Cl)c1=O` [Example 1.147], for which the “Post-emergence action: Stellaria (rating)” value with Stellaria [1] was 1. In addition, the “Post-emergence action: Avena (rating)” value with Avena [2] is recorded as 1. Also, in the assay on Setaria [3], the “Post-emergence action: Setaria (rating)” value was found to be 1. Further, the “Post-emergence action: Sinapis (rating)” value with Sinapis [4] is on record as 1. Further, the “Pre-emergence action: Stellaria (rating)” value in the assay with Stellaria [5] is 1. The “Pre-emergence action: Avena (rating)” value with Avena [6] is 1. Further, the “Pre-emergence action: Setaria (rating)” value with Setaria [7] came out at 1. Further, the “Pre-emergence action: Sinapis (rating)” value in the assay on Sinapis [8] worked out at 1.
On to `CCCCn1c(-c2nn(C)c(OC(F)F)c2Cl)c(F)cc(Cl)c1=O` [Example 1.010], for which the “Post-emergence action: Stellaria (rating)” value in the assay with Stellaria [1] is reported as 1. Besides, the “Post-emergence action: Avena (rating)” value in the assay on Avena [2] was 1. The “Post-emergence action: Setaria (rating)” value in the assay with Setaria [3] is reported as 1. Moreover, the “Post-emergence action: Sinapis (rating)” value in the assay on Sinapis [4] was 1. Moreover, the “Pre-emergence action: Stellaria (rating)” value in the assay on Stellaria [5] is given as 1. Further, the “Pre-emergence action: Avena (rating)” value in the assay with Avena [6] was determined as 1. Besides, the “Pre-emergence action: Setaria (rating)” value with Setaria [7] is reported as 1. Besides, in the assay on Sinapis [8], the “Pre-emergence action: Sinapis (rating)” value stood at 1.
`C=CCn1c(-c2nn(C)c(OC(F)F)c2Cl)c(F)cc(Cl)c1=O` [Example 1.080]: the “Post-emergence action: Stellaria (rating)” value in the assay with Stellaria [1] was found to be 1. Moreover, the “Post-emergence action: Avena (rating)” value in the assay with Avena [2] worked out at 1. Also, the “Post-emergence action: Setaria (rating)” value with Setaria [3] is listed as 1. In the assay with Sinapis [4], the “Post-emergence action: Sinapis (rating)” value is 1. Also, the “Pre-emergence action: Stellaria (rating)” value in the assay with Stellaria [5] was 1. The “Pre-emergence action: Avena (rating)” value in the assay on Avena [6] is recorded as 1. For the same molecule, the “Pre-emergence action: Setaria (rating)” value in the assay on Setaria [7] was found to be 1. Further, in the assay with Sinapis [8], the “Pre-emergence action: Sinapis (rating)” value turned out to be 1.
With `Cn1nc(-c2ccc(Cl)c(=O)n2C)c(Cl)c1OC(F)F` [Example 1.001], the “Post-emergence action: Stellaria (rating)” value in the assay with Stellaria [1] was 1. In the assay on Avena [2], the “Post-emergence action: Avena (rating)” value is given as 1. For the same molecule, the “Post-emergence action: Setaria (rating)” value with Setaria [3] is given as 1. In the assay on Sinapis [4], the “Post-emergence action: Sinapis (rating)” value stood at 1. Besides, the “Pre-emergence action: Stellaria (rating)” value in the assay on Stellaria [5] is 1. In addition, in the assay on Avena [6], the “Pre-emergence action: Avena (rating)” value is 1. Besides, the “Pre-emergence action: Setaria (rating)” value with Setaria [7] is recorded as 1. In the assay on Sinapis [8], the “Pre-emergence action: Sinapis (rating)” value came out at 1.
Turning to `CCS(=O)(=O)CCn1c(-c2nn(C)c(OC(F)F)c2Cl)c(F)cc(Cl)c1=O` [Example 1.168], the “Post-emergence action: Stellaria (rating)” value in the assay with Stellaria [1] turned out to be 1. Besides, the “Post-emergence action: Avena (rating)” value in the assay with Avena [2] worked out at 1. In addition, the “Post-emergence action: Setaria (rating)” value with Setaria [3] worked out at 1. Besides, in the assay on Sinapis [4], the “Post-emergence action: Sinapis (rating)” value was determined as 1. For the same molecule, in the assay with Stellaria [5], the “Pre-emergence action: Stellaria (rating)” value came out at 1. The “Pre-emergence action: Avena (rating)” value in the assay on Avena [6] came to 1. In the assay with Setaria [7], the “Pre-emergence action: Setaria (rating)” value was found to be 1. Besides, the “Pre-emergence action: Sinapis (rating)” value in the assay on Sinapis [8] is recorded as 1.
For `C#CCn1c(-c2nn(C)c(C(F)(F)F)c2Br)c(F)cc(Cl)c1=O` [Example 10.100], in the assay with Stellaria [1], the “Post-emergence action: Stellaria (rating)” value stood at 1. Also, the “Post-emergence action: Avena (rating)” value in the assay with Avena [2] came to 1. Besides, in the assay with Setaria [3], the “Post-emergence action: Setaria (rating)” value is 2. Besides, the “Post-emergence action: Sinapis (rating)” value in the assay with Sinapis [4] is 1. Further, the “Pre-emergence action: Stellaria (rating)” value in the assay with Stellaria [5] came to 1. The “Pre-emergence action: Avena (rating)” value with Avena [6] is listed as 1. In the assay with Setaria [7], the “Pre-emergence action: Setaria (rating)” value was 1. Further, the “Pre-emergence action: Sinapis (rating)” value in the assay with Sinapis [8] turned out to be 1.
For `CCn1c(-c2nn(C)c(OC(F)F)c2Cl)c(F)cc(Cl)c1=O` [Example 1.004], the “Post-emergence action: Stellaria (rating)” value in the assay with Stellaria [1] is reported as 1. In addition, the “Post-emergence action: Avena (rating)” value with Avena [2] is reported as 1. Besides, in the assay with Setaria [3], the “Post-emergence action: Setaria (rating)” value amounted to 2. In the assay with Sinapis [4], the “Post-emergence action: Sinapis (rating)” value was determined as 1. In addition, the “Pre-emergence action: Stellaria (rating)” value with Stellaria [5] is reported as 1. Moreover, the “Pre-emergence action: Avena (rating)” value in the assay with Avena [6] turned out to be 1. In addition, the “Pre-emergence action: Setaria (rating)” value in the assay with Setaria [7] is reported as 1. In addition, the “Pre-emergence action: Sinapis (rating)” value in the assay on Sinapis [8] was determined as 1.
`Cn1nc(-c2c(F)cc(Cl)c(=O)n2CCc2ccccc2)c(Cl)c1OC(F)F` [Example 1.105]: the “Post-emergence action: Stellaria (rating)” value with Stellaria [1] amounted to 1. Further, in the assay with Avena [2], the “Post-emergence action: Avena (rating)” value was 1. In addition, the “Post-emergence action: Setaria (rating)” value in the assay with Setaria [3] was 2. Further, in the assay on Sinapis [4], the “Post-emergence action: Sinapis (rating)” value is recorded as 1. In addition, the “Pre-emergence action: Stellaria (rating)” value in the assay with Stellaria [5] was 1. Also, the “Pre-emergence action: Avena (rating)” value with Avena [6] is reported as 1. Besides, in the assay with Setaria [7], the “Pre-emergence action: Setaria (rating)” value stood at 1. The “Pre-emergence action: Sinapis (rating)” value with Sinapis [8] was determined as 1.
On to `Cn1nc(-c2c(F)cc(Cl)c(=O)n2CS(C)(=O)=O)c(Cl)c1OC(F)F` [Example 1.153], for which the “Post-emergence action: Stellaria (rating)” value with Stellaria [1] was determined as 1. Further, the “Post-emergence action: Avena (rating)” value with Avena [2] amounted to 1. In the assay on Setaria [3], the “Post-emergence action: Setaria (rating)” value is recorded as 1. In addition, the “Post-emergence action: Sinapis (rating)” value in the assay with Sinapis [4] was found to be 1. Further, the “Pre-emergence action: Stellaria (rating)” value in the assay on Stellaria [5] is 1. The “Pre-emergence action: Avena (rating)” value with Avena [6] was determined as 1. For the same molecule, in the assay with Setaria [7], the “Pre-emergence action: Setaria (rating)” value came out at 1. Moreover, the “Pre-emergence action: Sinapis (rating)” value in the assay on Sinapis [8] is on record as 1.
For `Cn1nc(-c2c(F)cc(Cl)c(=O)n2CC(=O)OCc2ccccc2)c(Cl)c1OC(F)F` [Example 1.195], the “Post-emergence action: Stellaria (rating)” value with Stellaria [1] worked out at 1. Also, the “Post-emergence action: Avena (rating)” value in the assay with Avena [2] is 1. Further, the “Post-emergence action: Setaria (rating)” value in the assay on Setaria [3] is listed as 1. For the same molecule, the “Post-emergence action: Sinapis (rating)” value with Sinapis [4] came to 1. In the assay on Stellaria [5], the “Pre-emergence action: Stellaria (rating)” value was 1. Besides, in the assay on Avena [6], the “Pre-emergence action: Avena (rating)” value came out at 3. For the same molecule, the “Pre-emergence action: Setaria (rating)” value in the assay with Setaria [7] came out at 1. Also, the “Pre-emergence action: Sinapis (rating)” value in the assay on Sinapis [8] is listed as 1.
